Test results as given in patent publication US20210000986A1, “INCLUSION COMPLEXES SUITABLE FOR USE AS A HISTOTRIPSY AGENT” (T.C ISTANBUL MEDIPOL ÜNIVERSITESI, priority 2018, published 2021).

What was measured:
[1] = Dynamic light scattering (DLS) size testing; assay type: physicochemical
Source text: The size of the complex plays an important role in determining the threshold for histotripsy. Small size particles are more easily injected and they accumulate highly in tumor tissue. […] The results obtained in the DLS tests are shown as a graph in FIG. 2. Herein BCD is beta-cyclodextrin; MBCD is methylated beta-cyclodextrin and MIC refers to the inclusion complex of methylated beta-cyclodextrin and perfluorohexane.

kidney HEK-293T cells = assay type: cell-based
Description: The cell viability test is important to determine how the methylated beta-cyclodextrin perfluorohexane inclusion complex interacts with cells in the body.
Inclusion complexes according to the invention were tested using kidney HEK-293T cells from the reticulo-endothelial system organs responsible for cleansing blood in the body and removing various particles and antigens from blood flow and forming inflammatory mediators against immunological stimuli.
For this purpose, beta-cyclodextrin (BCD), methylated beta-cyclodextrin (MCD) and methylated beta-cyclodextrin and perfluorohexane inclusion complex (MIC) solutions at a concentration of 0.1 mg/mL, 0.5 mg/mL and 1 mg/mL were prepared. In addition, perfluorohexane (PFH) at amounts of 0.1 μL, 0.13 μL, 0.15 μL were also tested on the same cells. The amount of perfluorohexane tested was based on the amount of perfluorohexane in 1 mg/mL MIC. It was determined that in 1 mg/mL MIC there is 0.15 μL of perfluorohexane.

| size (DLS) [1] | Compound | toxicity (conclusion from cell viability) (kidney HEK-293T cells) | cell viability (kidney HEK-293T cells; human, 0.15 μL) |
| --- | --- | --- | --- |
| 16.42 nm | OC[C@H]1O[C@@H]2O[C@H]3[C@H](O)[C@@H](O)[C@@H](O[C@H]4[C@H](O)[C@@H](O)[C@@H](O[C@H]5[C@H](O)[C@@H](O)[C@@H](O[C@H]6[C@H](O)[C@@H](O)[C@@H](O[C@H]7[C@H](O)[C@@H](O)[C@@H](O[C@H]8[C@H](O)[C@@H](O)[C@@H](O[C@H]1[C@H](O)[C@H]2O)O[C@@H]8CO)O[C@@H]7CO)O[C@@H]6CO)O[C@@H]5CO)O[C@@H]4CO)O[C@@H]3CO [beta-cyclodextrin] | – | – |
| – | FC(F)(F)C(F)(F)C(F)(F)C(F)(F)C(F)(F)C(F)(F)F [perfluorohexane] | not toxic | 89% |
| 19.55 nm | methylated beta-cyclodextrin | – | – |
